Laboratory results published in US9175357B2, “Fragment ligated inhibitors selective for the polo box domain of PLK1” (UNIVERSITY OF SOUTH CAROLINA, priority 2011, dated 2015).
Numbered stars: 1 amine (or outer) side, 2 acyl side, 3 side chain; on linkers, the order of the positions; unused ones are H or OH. Square brackets hold non-standard residues; d marks the D form. Ends that are not written are not given here. Peptide text beside a SMILES is read from it. * marks the point of attachment. Quinoline(6-carbonyl) = O=C(c1ccc2ncccc2c1)*; X11 = O=C(c1cn(S(=O)(=O)c2ccccc2)c2ccccc12)*; X6 = Cc1c(C(=O)*)cc(-c2ccccc2)n1-c1ccccc1; NMe4Abz = CN(c1ccc(C(=O)[*:2])cc1)[*:1]; X3 = Cc1ccc(-c2cn(CC(=O)*)c(=O)cn2)cc1; pT = C[C@@H](OP(=O)(O)O)[C@H](N)C(=O)O; X14 = COc1cccc(-c2cc(C(=O)*)[nH]n2)c1; Benzoyl(4-OMe) = COc1ccc(C(=O)*)cc1; X7 = Cc1ccc2c(c1)N(CC(=O)*)C(=O)CO2; Benzoyl(4-Et) = CCc1ccc(C(=O)*)cc1; 1Naphthoyl = O=C(c1cccc2ccccc12)*; X2 = Cc1nc(-c2ccc(C(=O)*)cc2)no1; X10 = COc1cc(C(=O)*)cc2c1OCCO2; X15 = COc1ccc(C(=O)*)c2ccccc12; X8 = Cc1cc2c(SCC(=O)*)ncnc2s1; X1 = CCCCc1ccc(C(=O)*)cc1; X17 = CCCc1ccc(C(=O)*)cc1; X5 = CCCNc1ccc(C(=O)*)cc1; X9 = CCOc1ccc(C(=O)*)cc1; X4 = CSc1ccc(C(=O)*)cc1

molecular target: PLK1 PBD protein (residues 367-603) (Homo sapiens (Human), UniProt P53350); assay: Competitive fluorescence polarization (FP) binding assay, PLK1 PBD; settings: not given
Sequence (P53350 367-603): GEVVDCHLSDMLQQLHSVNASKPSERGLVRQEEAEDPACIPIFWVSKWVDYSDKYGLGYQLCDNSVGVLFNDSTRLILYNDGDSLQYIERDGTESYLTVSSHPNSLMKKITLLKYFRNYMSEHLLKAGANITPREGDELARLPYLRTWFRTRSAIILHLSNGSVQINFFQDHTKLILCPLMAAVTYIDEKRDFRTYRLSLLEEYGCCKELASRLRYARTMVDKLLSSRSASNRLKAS

Row | Compound | IC50
1 | CC(C)C[C@H](NC(=O)CNC(=O)[C@H](CC(N)=O)NC(=O)[C@@H]1CCCN1C(=O)[C@@H](NC(=O)[C@H](CO)NC(=O)c1cn(S(=O)(=O)c2ccccc2)c2ccccc12)[C@@H](C)OP(=O)(O)O)C(=O)O [compound 5591] (X11-S[pT]PNGL-OH) | 375 µM
2 | COc1cccc(-c2cc(C(=O)N[C@@H](CO)C(=O)N[C@H](C(=O)N3CCC[C@H]3C(=O)N[C@@H](CC(N)=O)C(=O)NCC(=O)N[C@@H](CC(C)C)C(=O)O)[C@@H](C)OP(=O)(O)O)[nH]n2)c1 [compound 5593] (X14-S[pT]PNGL-OH) | 380 µM
3 | Cc1ccc2c(c1)N(CC(=O)N[C@@H](CO)C(=O)N[C@H](C(=O)N1CCC[C@H]1C(=O)N[C@@H](CC(N)=O)C(=O)NCC(=O)N[C@@H](CC(C)C)C(=O)O)[C@@H](C)OP(=O)(O)O)C(=O)CO2 [compound 5594, 1G1-S[pT]PNGL] (X7-S[pT]PNGL-OH) | 350 µM
4 | Cc1cc2c(SCC(=O)N[C@@H](CO)C(=O)N[C@H](C(=O)N3CCC[C@H]3C(=O)N[C@@H](CC(N)=O)C(=O)NCC(=O)N[C@@H](CC(C)C)C(=O)O)[C@@H](C)OP(=O)(O)O)ncnc2s1 [compound 5595] (X8-S[pT]PNGL-OH) | 475 µM
5 | Cc1nc(-c2ccc(C(=O)N[C@@H](CO)C(=O)N[C@H](C(=O)N3CCC[C@H]3C(=O)N[C@@H](CC(N)=O)C(=O)NCC(=O)N[C@@H](CC(C)C)C(=O)O)[C@@H](C)OP(=O)(O)O)cc2)no1 [compound 5598, 1G2-S[pT]PNGL] (X2-S[pT]PNGL-OH) | 320 µM
6 | Cc1c(C(=O)N[C@@H](CO)C(=O)N[C@H](C(=O)N2CCC[C@H]2C(=O)N[C@@H](CC(N)=O)C(=O)NCC(=O)N[C@@H](CC(C)C)C(=O)O)[C@@H](C)OP(=O)(O)O)cc(-c2ccccc2)n1-c1ccccc1 [compound 5599] (X6-S[pT]PNGL-OH) | 600 µM
7 | CC(C)C[C@H](NC(=O)CNC(=O)[C@H](CC(N)=O)NC(=O)[C@@H]1CCCN1C(=O)[C@@H](NC(=O)[C@H](CO)NC(=O)c1ccc2ncccc2c1)[C@@H](C)OP(=O)(O)O)C(=O)O [compound 5601] ({Quinoline(6-carbonyl)}-S[pT]PNGL-OH) | 400 µM
8 | Cc1ccc(-c2cn(CC(=O)N[C@@H](CO)C(=O)N[C@H](C(=O)N3CCC[C@H]3C(=O)N[C@@H](CC(N)=O)C(=O)NCC(=O)N[C@@H](CC(C)C)C(=O)O)[C@@H](C)OP(=O)(O)O)c(=O)cn2)cc1 [compound 5603, 1G3-S[pT]PNGL] (X3-S[pT]PNGL-OH) | 250 µM
9 | COc1cc(C(=O)N[C@@H](CO)C(=O)N[C@H](C(=O)N2CCC[C@H]2C(=O)N[C@@H](CC(N)=O)C(=O)NCC(=O)N[C@@H](CC(C)C)C(=O)O)[C@@H](C)OP(=O)(O)O)cc2c1OCCO2 [compound 5604] (X10-S[pT]PNGL-OH) | 300 µM
10 | CC(C)C[C@H](NC(=O)CNC(=O)[C@H](CC(N)=O)NC(=O)[C@@H]1CCCN1C(=O)[C@@H](NC(=O)[C@H](CO)NC(=O)c1cccc2ccccc12)[C@@H](C)OP(=O)(O)O)C(=O)O [compound 5753] (1Naphthoyl-S[pT]PNGL-OH) | 104 µM
11 | COc1ccc(C(=O)N[C@@H](CO)C(=O)N[C@H](C(=O)N2CCC[C@H]2C(=O)N[C@@H](CC(N)=O)C(=O)NCC(=O)N[C@@H](CC(C)C)C(=O)O)[C@@H](C)OP(=O)(O)O)c2ccccc12 [compound 5756, 2G1-S[pT]PNGL] (X15-S[pT]PNGL-OH) | 99 µM

same assay, conditions: Table 1

Row | PLK1 PBD IC50 | Compound
12 | no detectable binding | CC(C)C[C@H](NC(=O)CNC(=O)[C@H](CC(N)=O)NC(=O)[C@@H]1CCCN1C(=O)[C@@H](NC(=O)[C@@H](N)CO)[C@@H](C)OP(=O)(O)O)C(=O)O [Sample No. 5714, S[pT]PNGL] (H-S[pT]PNGL-OH)
13 | weakly but detectably bound | Ac-PLHSEA [compound 5744, Ac-PLHSEA]

same assay, conditions: Table 1; read-out: PLK1 PBD IC50

Row | IC50 | Compound
14 | 5 µM | CC[C@H](C)[C@H](NC(=O)[C@H](C)NC(=O)[C@@H](NC(=O)[C@H](CO)NC(=O)[C@H](Cc1c[nH]cn1)NC(=O)[C@H](CC(C)C)NC(C)=O)[C@@H](C)OP(=O)(O)O)C(=O)O [Sample No. 5781, Ac-LHS[pT]AI, reference compound] (Ac-LHS[pT]AI-OH)

same assay, conditions: Table 2, FP assay; read-out: IC50

Row | IC50 | Compound
15 | 125 µM | COc1ccc(C(=O)N[C@@H](CO)C(=O)N[C@H](C(=O)N2CCC[C@H]2C(=O)N[C@@H](CC(N)=O)C(=O)NCC(=O)N[C@@H](CC(C)C)C(=O)O)[C@@H](C)OP(=O)(O)O)cc1 [compound 5754] ({Benzoyl(4-OMe)}-S[pT]PNGL-OH)
16 | 64.7 µM | CCOc1ccc(C(=O)N[C@@H](CO)C(=O)N[C@H](C(=O)N2CCC[C@H]2C(=O)N[C@@H](CC(N)=O)C(=O)NCC(=O)N[C@@H](CC(C)C)C(=O)O)[C@@H](C)OP(=O)(O)O)cc1 [compound 5786] (X9-S[pT]PNGL-OH)
17 | 16.5 µM | CCc1ccc(C(=O)N[C@@H](CO)C(=O)N[C@H](C(=O)N2CCC[C@H]2C(=O)N[C@@H](CC(N)=O)C(=O)NCC(=O)N[C@@H](CC(C)C)C(=O)O)[C@@H](C)OP(=O)(O)O)cc1 [compound 5788, 3G1-S[pT]PNGL (4-ethylbenzoic acid)] ({Benzoyl(4-Et)}-S[pT]PNGL-OH)
18 | 18.5 µM | CSc1ccc(C(=O)N[C@@H](CO)C(=O)N[C@H](C(=O)N2CCC[C@H]2C(=O)N[C@@H](CC(N)=O)C(=O)NCC(=O)N[C@@H](CC(C)C)C(=O)O)[C@@H](C)OP(=O)(O)O)cc1 [compound 5791] (X4-S[pT]PNGL-OH)
19 | 31.2 µM | CNc1ccc(C(=O)N[C@@H](CO)C(=O)N[C@H](C(=O)N2CCC[C@H]2C(=O)N[C@@H](CC(N)=O)C(=O)NCC(=O)N[C@@H](CC(C)C)C(=O)O)[C@@H](C)OP(=O)(O)O)cc1 [compound 5792] (NMe4Abz-S[pT]PNGL-OH)
20 | 10.8 µM | CCCc1ccc(C(=O)N[C@@H](CO)C(=O)N[C@H](C(=O)N2CCC[C@H]2C(=O)N[C@@H](CC(N)=O)C(=O)NCC(=O)N[C@@H](CC(C)C)C(=O)O)[C@@H](C)OP(=O)(O)O)cc1 [compound 5826] (X17-S[pT]PNGL-OH)
21 | 8.6 µM | CCCCc1ccc(C(=O)N[C@@H](CO)C(=O)N[C@H](C(=O)N2CCC[C@H]2C(=O)N[C@@H](CC(N)=O)C(=O)NCC(=O)N[C@@H](CC(C)C)C(=O)O)[C@@H](C)OP(=O)(O)O)cc1 [compound 5827, 3G2-S[pT]PNGL (4-butylbenzoic acid)] (X1-S[pT]PNGL-OH)
22 | 16.5 µM | CCCNc1ccc(C(=O)N[C@@H](CO)C(=O)N[C@H](C(=O)N2CCC[C@H]2C(=O)N[C@@H](CC(N)=O)C(=O)NCC(=O)N[C@@H](CC(C)C)C(=O)O)[C@@H](C)OP(=O)(O)O)cc1 [compound 5830] (X5-S[pT]PNGL-OH)

molecular target: PLK1 (Homo sapiens (Human), UniProt P53350); assay: not given; settings: previously identified minimized PBD binding sequences; cited from earlier work
Sequence (P53350 326-603): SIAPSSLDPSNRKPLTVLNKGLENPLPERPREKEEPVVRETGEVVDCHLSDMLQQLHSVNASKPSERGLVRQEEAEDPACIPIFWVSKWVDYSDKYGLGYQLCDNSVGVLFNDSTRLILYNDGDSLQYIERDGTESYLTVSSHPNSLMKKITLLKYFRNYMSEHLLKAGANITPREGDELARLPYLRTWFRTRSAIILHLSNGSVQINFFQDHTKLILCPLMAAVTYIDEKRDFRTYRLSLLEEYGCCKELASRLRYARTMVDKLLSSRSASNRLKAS

Row | Compound | Kd
23 | CC[C@H](C)[C@H](NC(=O)[C@H](C)NC(=O)[C@@H](NC(=O)[C@H](CO)NC(=O)[C@H](Cc1c[nH]cn1)NC(=O)[C@@H](N)CC(C)C)[C@@H](C)OP(=O)(O)O)C(=O)O [compound 5649, LHS[pT]AI] (H-LHS[pT]AI-OH) | 0.25 µM
